# Measurements reported in patent US9295714B2, “Apparatus and method for transdermal delivery of parathyroid hormone agents” (Alza Corporation, priority 2004, dated 2016).
# Legend:
# [1] = Pharmacokinetics of hPTH (1-34) after IV, SC and coated microprojection array administration; assay type: in vivo, hairless guinea pig; conditions: for dose absorbed/delivered: AUC relative to IV
# [2] = Plasma PTH after subcutaneous Forteo vs coated microprojection transdermal delivery; assay type: in vivo, human
# Experimental: (§1) In this example, transdermal delivery of a PTH-based agent using a coated microprojection member was compared to conventional, subcutaneous delivery of teriparatide PTH (Forteo™). A dose-finding study was conducted with […], young females that received two treatments, separated by at least five days, according to randomly assigned sequence of 20 μg subcutaneous delivery of Forteo™ and 30 μg transdermal delivery of a PTH-based agent by coated microprojection. Bioavailability of transdermally delivered PTH was determined in 20 healthy, young females by administering two treatments, separated by at least five day, according to randomly assigned sequence of 40 μg subcutaneous delivery of Forteo™ and 30 μg transdermal delivery of a PTH-based agent by coated microprojection.
# In the dose-finding study, two participants dropped out, eleven subjects participated and eight generated usable data. It was determined that three subjects had measurable PTH plasma levels following subcutaneous injection and eight subjects had measurable PTH plasma levels following transdermal delivery.
# urinary cAMP = experiment: Urinary cAMP excretion after subcutaneous vs transdermal delivery; assay type: in vivo, human
# Experimental: as §1
# FIG. 12 further reflects a preferred pulsatile concentration profile of the PTH agent, i.e., rapid on-set and rapid off-set after reaching Cmax.
# Solubility in water = assay type: physicochemical; conditions: at pH 5
# Description: Referring now to FIG. 10, there is shown a superposition of the mole ratios for acetic acid and the neutral form of hPTH (1-34). […] At pH 5, negligible amounts of PTH are present as PTH zero net charge (PTH 0). The PTH is also highly soluble in water at concentrations in excess of 20%. During drying and subsequent storage, the free acetic acid will evaporate inherently resulting in formation of the water insoluble PTH 0. Subsequent reconstitution in water will not allow total solubilization of PTH. Accordingly, the use of a low volatility counterion provides a solid soluble formulation of PTH as long as the pH is maintained at least 2.5 pH units, preferably 3 pH units, below the pI of PTH. Preferably, this can be achieved by providing at least about two low volatility counterions to each molecule of PTH.
compound,measurement,setting,value
CC[C@H](C)[C@H](NC(=O)[C@H](CCC(=O)O)NC(=O)[C@H](CO)NC(=O)[C@@H](NC(=O)[C@@H](N)CO)C(C)C)C(=O)N[C@@H](CCC(N)=O)C(=O)N[C@@H](CC(C)C)C(=O)N[C@@H](CCSC)C(=O)N[C@@H](Cc1cnc[nH]1)C(=O)N[C@@H](CC(N)=O)C(=O)N[C@@H](CC(C)C)C(=O)NCC(=O)N[C@@H](CCCCN)C(=O)N[C@@H](Cc1cnc[nH]1)C(=O)N[C@@H](CC(C)C)C(=O)N[C@@H](CC(N)=O)C(=O)N[C@@H](CO)C(=O)N[C@@H](CCSC)C(=O)N[C@@H](CCC(=O)O)C(=O)N[C@@H](CCCN=C(N)N)C(=O)N[C@H](C(=O)N[C@@H](CCC(=O)O)C(=O)N[C@@H](Cc1c[nH]c2ccccc12)C(=O)N[C@@H](CC(C)C)C(=O)N[C@@H](CCCN=C(N)N)C(=O)N[C@@H](CCCCN)C(=O)N[C@@H](CCCCN)C(=O)N[C@@H](CC(C)C)C(=O)N[C@@H](CCC(N)=O)C(=O)N[C@@H](CC(=O)O)C(=O)N[C@H](C(=O)N[C@@H](Cc1cnc[nH]1)C(=O)N[C@@H](CC(N)=O)C(=O)N[C@@H](Cc1ccccc1)C(=O)O)C(C)C)C(C)C [hPTH (1-34)],Fraction dose absorbed/delivered (%),"[1]; IV, 22.5 μg, hairless guinea pig",100%
same,dose absorbed/delivered,"[1]; SC, 19.5 μg",8.2 ± 2.9 µg
same,dose absorbed/delivered,"[1]; microprojection array, 40.0 μg",6.6 ± 1.8 µg
same,subjects with measurable PTH plasma levels,"[2]; bioavailability study, subcutaneous delivery (Forteo 40 μg), 20 subjects completed",15 subjects
same,subjects with measurable PTH plasma levels,"[2]; bioavailability study, transdermal delivery 30 μg, 20 subjects completed",20 subjects
same,subjects with measurable PTH plasma levels,"[2]; dose-finding study, subcutaneous injection (Forteo 20 μg), eight with usable data",three
same,subjects with measurable PTH plasma levels,"[2]; dose-finding study, transdermal delivery 30 μg, eight with usable data",eight
same,biological activity as evidenced by urinary cAMP excretion,urinary cAMP,comparable to that following subcutaneous delivery
same,solubility in water (concentration),Solubility in water,> 20%
